Test results taken from ChEMBL document CHEMBL5154822, “Novel inhibitors of AChE and Aβ aggregation with neuroprotective properties as lead compounds for the treatment of Alzheimer's disease” (Eur J Med Chem, 2022).
Calls of active or inactive are those of the source. The rule behind the calls is not given here.

What was measured:
[1] = molecular target: T1, Acetylcholinesterase (Mus musculus) (UniProt P21836); assay: Inhibition of AChE in mouse cerebral cortex using acetylthiocholine iodide as substrate at 40 uM preincubated for 10 mins followed by substrate addition and measured for 180 secs by Ellman's spectrophotometric method; format: tissue-based; conditions: time 780.0 sec
T1 sequence (whole entry): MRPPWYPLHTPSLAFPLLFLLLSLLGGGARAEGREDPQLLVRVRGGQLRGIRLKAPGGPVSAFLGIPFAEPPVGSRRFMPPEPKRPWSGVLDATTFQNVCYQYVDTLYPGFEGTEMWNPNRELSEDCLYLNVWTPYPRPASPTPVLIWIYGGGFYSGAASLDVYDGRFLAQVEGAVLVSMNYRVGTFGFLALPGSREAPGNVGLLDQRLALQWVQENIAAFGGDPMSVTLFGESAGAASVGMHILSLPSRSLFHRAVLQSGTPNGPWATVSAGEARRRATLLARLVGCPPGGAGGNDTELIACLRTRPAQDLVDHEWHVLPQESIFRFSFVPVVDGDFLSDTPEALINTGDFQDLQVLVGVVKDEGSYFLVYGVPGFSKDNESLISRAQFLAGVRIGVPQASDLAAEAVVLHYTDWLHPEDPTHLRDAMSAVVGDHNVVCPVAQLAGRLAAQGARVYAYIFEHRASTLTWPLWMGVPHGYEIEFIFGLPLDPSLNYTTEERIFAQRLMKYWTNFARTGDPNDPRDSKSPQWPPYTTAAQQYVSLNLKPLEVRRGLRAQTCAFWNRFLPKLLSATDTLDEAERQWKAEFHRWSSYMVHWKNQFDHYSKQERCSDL

Acetylcholinesterase [2] = molecular target: T2, Acetylcholinesterase (Mus musculus, UniProt P21836); assay: Inhibition of AChE in mouse cerebral cortex using acetylthiocholine iodide as substrate preincubated for 10 mins followed by substrate addition and measured for 180 secs by Ellman's spectrophotometric method; format: tissue-based
T2 sequence (P21836 whole entry): T1 sequence (whole entry)

Acetylcholinesterase [3] = molecular target: T2, Acetylcholinesterase; assay: Mixed-type inhibition of AChE in mouse cerebral cortex using acetylthiocholine iodide as substrate by double reciprocal Lineweaver-Burk plot analysis; format: tissue-based
[4] = Cytotoxicity against human SH-SY5Y cells assessed as maximum non-cytotoxic concentration by CellTiter-Glo luminescent assay; format: toxicity, cell-based; conditions: read-out: MNCC
[5] = Drug concentration in ICR mouse plasma at 1 mg/kg, ig measured after 0.25 hrs by LC/MS-MS analysis; format: ADME, organism-based; conditions: po
[6] = Drug concentration in ICR mouse plasma at 1 mg/kg, ig measured after 0.5 hrs by LC/MS-MS analysis; format: ADME, organism-based; conditions: po
[7] = Drug concentration in ICR mouse plasma at 1 mg/kg, ig measured after 1 hr by LC/MS-MS analysis; format: ADME, organism-based; conditions: po
[8] = Drug concentration in ICR mouse plasma at 1 mg/kg, ig measured after 2 hrs by LC/MS-MS analysis; format: ADME, organism-based; conditions: po
[9] = Drug concentration in ICR mouse plasma at 1 mg/kg, ig measured after 4 hrs by LC/MS-MS analysis; format: ADME, organism-based; conditions: po
[10] = Drug concentration in ICR mouse brain at 1 mg/kg, ig measured after 0.25 hrs by LC/MS-MS analysis; format: ADME, organism-based; conditions: po, read-out: Ct
[11] = Drug concentration in ICR mouse brain at 1 mg/kg, ig measured after 0.5 hrs by LC/MS-MS analysis; format: ADME, organism-based; conditions: po, read-out: Ct
[12] = Drug concentration in ICR mouse brain at 1 mg/kg, ig measured after 1 hr by LC/MS-MS analysis; format: ADME, organism-based; conditions: po, read-out: Ct
[13] = Drug concentration in ICR mouse brain at 1 mg/kg, ig measured after 2 hrs by LC/MS-MS analysis; format: ADME, organism-based; conditions: po, read-out: Ct
[14] = Drug concentration in ICR mouse brain at 1 mg/kg, ig measured after 4 hrs by LC/MS-MS analysis; format: ADME, organism-based; conditions: po, read-out: Ct
[15] = Ratio of drug concentration in brain to plasma in ICR mouse at 1 mg/kg, ig measured after 0.25 hrs by LC/MS-MS analysis; format: ADME, organism-based; conditions: po, read-out: BPR
[16] = Ratio of drug concentration in brain to plasma in ICR mouse at 1 mg/kg, ig measured after 0.5 hrs by LC/MS-MS analysis; format: ADME, organism-based; conditions: po, read-out: BPR
[17] = Ratio of drug concentration in brain to plasma in ICR mouse at 1 mg/kg, ig measured after 1 hr by LC/MS-MS analysis; format: ADME, organism-based; conditions: po, read-out: BPR
[18] = Ratio of drug concentration in brain to plasma in ICR mouse at 1 mg/kg, ig measured after 2 hrs by LC/MS-MS analysis; format: ADME, organism-based; conditions: po, read-out: BPR
[19] = Ratio of drug concentration in brain to plasma in ICR mouse at 1 mg/kg, ig measured after 4 hrs by LC/MS-MS analysis; format: ADME, organism-based; conditions: po, read-out: BPR
[20] = molecular target: Acetylcholinesterase (Homo sapiens) (UniProt P22303); assay: Inhibition of AChE in glyceraldehyde-exposed human SH-SY5Y differentiated neuronal cells using acetylthiocholine as substrate at 50 nM by Ellman's spectrophotometric method; format: cell-based
[21] = molecular target: Acetylcholinesterase (Homo sapiens) (UniProt P22303); assay: Inhibition of AChE in human SH-SY5Y differentiated neuronal cells assessed as inhibition of GA-induced tau hyperphosphorylation at Ser396 residue at 10 nM by ELISA; format: cell-based
SH-SY5Y [22] = assay: Neuroprotective activity in human SH-SY5Y differentiated neuronal cells assessed as inhibition of GA-induced neurite shortening by measuring increase in axon length at 0.5 uM by laser confocal microscope; format: functional, cell-based
SH-SY5Y [23] = assay: Neuroprotective activity in human SH-SY5Y differentiated neuronal cells assessed as inhibition of GA-induced axon morphology defects at 0.5 uM by laser confocal microscope; format: functional, cell-based
SH-SY5Y [24] = assay: Neuroprotective activity in human SH-SY5Y differentiated neuronal cells assessed as inhibition of GA-induced neurite shortening by measuring increase in axon length at 5 uM by laser confocal microscope; format: functional, cell-based
SH-SY5Y [25] = assay: Neuroprotective activity in human SH-SY5Y differentiated neuronal cells assessed as inhibition of GA-induced axon morphology defects at 5 uM by laser confocal microscope; format: functional, cell-based
SH-SY5Y [26] = assay: Neuroprotective activity in human SH-SY5Y differentiated neuronal cells assessed as inhibition of GA-induced cell death by measuring increase in cell viability at 0.5 to 5 uM measured after 24 hrs by MTT assay; format: functional, cell-based; conditions: dose 0.5-5 µM
SH-SY5Y [27] = assay: Antioxidant activity against okadaic acid-induced ROS generation in human SH-SY5Y cells assessed as reduction in DCF fluorescence intensity at 5 uM pretreated for 24 hrs followed by okadaic acid addition for 24 hrs by DCFH-DA dye based fluorescence analysis; format: functional, cell-based; conditions: time 48.0 hrs
SH-SY5Y [28] = assay: Neuroprotective activity in human SH-SY5Y cells assessed as inhibition of okadaic acid-induced mitochondrial dysfunction by measuring increase in red-to-green fluorescence intensity ratio pretreated for 24 hrs followed by okadaic acid addition for 24 hrs by JC-1 dye based fluorescence analysis; format: functional, cell-based; conditions: dose 0.5-5 µM, time 48.0 hrs, DDE = dose-dependent effect
Mus musculus [29] = assay: In vivo inhibition of AChE in ig dosed ICR mouse cerebral cortex using acetylthiocholine iodide as substrate and measured after 1 hr by microplate reader analysis; format: functional, organism-based; conditions: dose 1-4 mg/kg, DDE = dose-dependent effect
Mus musculus [30] = assay: In vivo inhibition of AChE in ig dosed ICR mouse hippocampus using acetylthiocholine iodide as substrate and measured after 1 hr by microplate reader analysis; format: functional, organism-based; conditions: dose 1-4 mg/kg, DDE = dose-dependent effect
Mus musculus [31] = assay: In vivo inhibition of AChE in ICR mouse cerebral cortex using acetylthiocholine iodide as substrate at 4 mg/kg, ig measured after 1 hr by microplate reader analysis; format: functional, organism-based
Mus musculus [32] = assay: In vivo inhibition of AChE in ICR mouse hippocampus using acetylthiocholine iodide as substrate at 4 mg/kg, ig measured after 1 hr by microplate reader analysis; format: functional, organism-based
Mus musculus [33] = assay: Antialzheimer activity against scopolamine-induced cognitive deficit ICR mouse model assessed as improvement in memory impairment by measuring reduction in number of errors at 0.1 to 0.3 mg/kg, ig by step-through passive avoidance test; format: functional, organism-based; conditions: dose 0.1-0.3 mg/kg

Chain of Acetylcholinesterase (Homo sapiens) (P22303 whole entry): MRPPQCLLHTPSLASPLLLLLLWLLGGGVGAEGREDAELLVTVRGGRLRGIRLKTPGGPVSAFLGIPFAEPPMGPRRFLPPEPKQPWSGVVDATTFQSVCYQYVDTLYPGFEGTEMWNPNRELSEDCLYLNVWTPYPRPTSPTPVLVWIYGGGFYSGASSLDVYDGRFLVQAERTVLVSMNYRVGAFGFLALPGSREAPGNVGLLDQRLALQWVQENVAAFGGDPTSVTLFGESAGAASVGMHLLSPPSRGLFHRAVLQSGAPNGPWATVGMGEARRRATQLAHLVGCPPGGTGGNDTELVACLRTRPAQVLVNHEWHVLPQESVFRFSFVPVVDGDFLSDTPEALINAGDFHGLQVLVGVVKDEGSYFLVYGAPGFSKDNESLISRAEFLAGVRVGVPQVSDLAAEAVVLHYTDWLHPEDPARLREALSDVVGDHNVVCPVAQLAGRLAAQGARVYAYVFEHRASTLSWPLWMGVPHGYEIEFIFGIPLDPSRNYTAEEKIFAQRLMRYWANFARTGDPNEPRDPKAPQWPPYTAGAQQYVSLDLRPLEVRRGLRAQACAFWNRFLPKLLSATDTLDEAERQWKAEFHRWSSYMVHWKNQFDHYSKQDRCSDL

CCOC(=O)/C(=C\C1CCN(Cc2ccccc2)CC1)S(=O)(=O)c1ccc(OC)c(OC)c1
inhibition [1]: 12.4%

COc1cc2c(cc1OC)S(=O)(=O)C(CC1CCN(Cc3ccc(F)c(Cl)c3)CC1)C2 (stereo unspecified)
IC50 (Acetylcholinesterase [2]): 11.5 nM

COc1cc2c(cc1OC)S(=O)(=O)C(CC1CCN(Cc3ccccc3)CC1)C2 (stereo unspecified)
IC50 (Acetylcholinesterase [2]): 4.4 nM

COc1cc2c(cc1OC)S(=O)(=O)C(CC1(F)CCN(Cc3cccc(F)c3)CC1)C2 (stereo unspecified)
IC50 (Acetylcholinesterase [2]): 5.1 nM

COc1cc2c(cc1OC)S(=O)(=O)C(CC1(F)CCN(Cc3ccccc3Cl)CC1)C2 (stereo unspecified)
IC50 (Acetylcholinesterase [2]): 5.5 nM

COc1cc2c(cc1OC)S(=O)(=O)C(F)(CC1CCN(Cc3cccc(F)c3)CC1)C2 (stereo unspecified) [listing 1 of 2 here]
IC50 (Acetylcholinesterase [2]): 2.4 nM | Ki (Acetylcholinesterase [3]): 0.4 nM | MNTC [4]: 10 µM | concentration at 0.25 h [5]: 2.89 ng/mL | concentration at 0.5 h [6]: 3.42 ng/mL | concentration at 1 h [7]: 3.48 ng/mL | concentration at 2 h [8]: 2.59 ng/mL | concentration at 4 h [9]: 2.7 ng/mL | concentration at 0.25 h [10]: 10.6 ng/mL | concentration at 0.5 h [11]: 18.1 ng/mL | concentration at 1 h [12]: 21.9 ng/mL | concentration at 2 h [13]: 21.8 ng/mL | concentration at 4 h [14]: 21.7 ng/mL | Kp at 0.25 h [15]: 4.17 | Kp at 0.5 h [16]: 5.24 | Kp at 1 h [17]: 6.33 | Kp at 2 h [18]: 8.4 | Kp at 4 h [19]: 8.47

COc1ccc(S(=O)(=O)/C=C/C2CCN(Cc3ccccc3)CC2)cc1OC
IC50 (Acetylcholinesterase [2]): 67.6 nM

COc1cc2c(cc1OC)S(=O)(=O)/C(=C/C1CCN(Cc3ccccc3)CC1)CCC2
inhibition [1]: 32.8%

COc1cc2c(cc1OC)S(=O)(=O)/C(=C/C1CCN(Cc3ccccc3)CC1)C2
IC50 (Acetylcholinesterase [2]): 4.7 nM

COc1ccc(S(=O)(=O)/C(Cl)=C/C2CCN(Cc3ccccc3)CC2)cc1OC
IC50 (Acetylcholinesterase [2]): 340 nM

COc1cc2c(cc1OC)S(=O)(=O)C(F)(CC1CCN(Cc3cccc(F)c3)CC1)C2 (stereo unspecified) [listing 2 of 2 here]
inhibition [20]: Active | inhibition [21]: Active | Activity (SH-SY5Y [22]): Active | Activity (SH-SY5Y [23]): Active | Activity (SH-SY5Y [24]): Active | Activity (SH-SY5Y [25]): Active | Activity (SH-SY5Y [26]): Active | Activity (SH-SY5Y [27]): Active | Activity (SH-SY5Y [28]): Dde | inhibition (Mus musculus [29]): Dde | inhibition (Mus musculus [30]): Dde | inhibition (Mus musculus [31]): Active | inhibition (Mus musculus [32]): Active | Activity (Mus musculus [33]): Active

CO/C(=C\C1CCN(Cc2ccccc2)CC1)S(=O)(=O)c1ccc(OC)c(OC)c1
IC50 (Acetylcholinesterase [2]): 8440 nM

COc1cc2c(cc1OC)S(=O)(=O)C(CC1(F)CCN(Cc3cccc(Cl)c3)CC1)C2 (stereo unspecified)
IC50 (Acetylcholinesterase [2]): 5 nM

COc1cc2c(cc1OC)S(=O)(=O)/C(=C/C1CCN(Cc3ccccc3)CC1)CC2
IC50 (Acetylcholinesterase [2]): 1820 nM

COc1cc2c(cc1OC)S(=O)(=O)C(CC1CCN(Cc3ccc(F)cc3)CC1)C2 (stereo unspecified)
IC50 (Acetylcholinesterase [2]): 11.3 nM

COc1cc2c(cc1OC)S(=O)(=O)C(CC1(F)CCN(Cc3ccccc3C(F)(F)F)CC1)C2 (stereo unspecified)
IC50 (Acetylcholinesterase [2]): 3010 nM
